# Experimental data as given in patent US20250320234A1, “LONP1 INHIBITOR COMPOUNDS, USES AND METHODS” (Pretzel Therapeutics, Inc., priority 2021, published 2025).
# Molecular target: LONP1 (NM_004793.4) (Homo sapiens (Human), UniProt P36776)
# Assay: LONP1 FRET-based protease activity assay with fluorogenic peptide substrate
# Format: biochemical
# Conditions: LONP1 15 nM, substrate 3 μM, 1 hour at 37° C.; average of a minimum of two repeats
# Experimental: The inhibitory activity of the compounds of the present invention against LONP1, 20S proteasome and other proteases are determined by assays known to persons of ordinary skill in the art (see, e.g., Fishovitz, J. et al. “Active-Site-Directed Chemical Tools for Profiling Mitochondrial Lon Protease” ACS Chem. Biol. 6, 781-788 (2011)).
# In this Example, LONP1 (NM_004793.4) activity was measured by a FRET-based assay for protease activity using a fluorogenic peptide DabcylYRGIT(2Abu)SORQK(5-FAM) (Cambridge Research Biochemicals) as substrate. LONP1 activity is followed by an increase in fluorescence signal due to the degradation of the peptide. Inhibition of LONP1 protease activity by an inhibitor compound of the disclosure elicits a decrease in the fluorescent signal.
# The assay is performed in a 384-well plate (Greiner, cat. #781076) using the following reagents and conditions: substrate (3 μM) was incubated for 1 hour at 37° C. in the presence of LONP1 (15 nM as monomer), 25 mM Tris pH 8.0, 10 mM MgCl2, 0.03 mg/mL […], 0.5 mM DTT, 0.0003% Tween-20, 10 mM NaCl, 0.06 mM ATP and 0.5 mM EGTA in a 15 μL final volume. The LONP1-containing mix (10 μL) was incubated with the test compound for 15 min at 37° C. before adding the peptide-containing mix (5 μL). Solutions were dispensed using a small cassette-Multidrop Combi (Thermo Scientific). Fluorescence was measured using a PheraStar plate reader (BMG Labtech) FI-FRET EX 485 nm Em 520 nm.
# Each value is based on an average of a minimum of two repeats.
# Chain of LONP1 (NM_004793.4) (P36776 68-959): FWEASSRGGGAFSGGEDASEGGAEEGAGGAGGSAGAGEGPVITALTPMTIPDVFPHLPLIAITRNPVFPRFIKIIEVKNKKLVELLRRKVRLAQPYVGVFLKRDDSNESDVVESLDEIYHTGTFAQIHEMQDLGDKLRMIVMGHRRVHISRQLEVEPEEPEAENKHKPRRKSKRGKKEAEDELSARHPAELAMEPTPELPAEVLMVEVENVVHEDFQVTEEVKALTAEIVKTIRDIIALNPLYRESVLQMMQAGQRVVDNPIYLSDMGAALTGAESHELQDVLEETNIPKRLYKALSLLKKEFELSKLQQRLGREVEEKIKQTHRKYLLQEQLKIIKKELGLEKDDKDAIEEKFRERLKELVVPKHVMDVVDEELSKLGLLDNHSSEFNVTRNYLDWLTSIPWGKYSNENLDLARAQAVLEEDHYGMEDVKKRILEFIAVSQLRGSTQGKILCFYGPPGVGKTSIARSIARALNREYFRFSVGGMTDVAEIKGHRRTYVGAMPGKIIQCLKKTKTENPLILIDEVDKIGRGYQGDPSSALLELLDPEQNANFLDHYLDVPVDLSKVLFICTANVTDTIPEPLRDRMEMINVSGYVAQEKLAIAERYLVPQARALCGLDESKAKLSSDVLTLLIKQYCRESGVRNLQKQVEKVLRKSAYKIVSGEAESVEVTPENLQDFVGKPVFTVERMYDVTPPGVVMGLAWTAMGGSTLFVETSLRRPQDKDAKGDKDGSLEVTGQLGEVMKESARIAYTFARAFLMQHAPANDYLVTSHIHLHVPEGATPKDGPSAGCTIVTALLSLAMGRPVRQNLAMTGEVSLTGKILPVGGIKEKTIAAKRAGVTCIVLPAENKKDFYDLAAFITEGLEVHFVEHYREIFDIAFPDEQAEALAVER
row,IC50 [nM],Compound
1,500 to 5000,"COC[C@@H](NC(=O)c1cnccn1)C(=O)N[C@H](CCOc1ccc(Cl)c(F)c1)B(O)O [Compound 26, ((S)-3-(4-chloro-3-fluorophenoxy)-1-((R)-3-methoxy-2-(pyrazine-2-carboxamido)propanamido)propyl)boronic acid]"
2,50 to 500,"COC[C@@H](NC(=O)[C@H]1CCCCO1)C(=O)N[C@@H](CCCc1ccccc1)B(O)O [Compound 41, ((R)-1-((R)-3-methoxy-2-((R)-tetrahydro-2H-pyran-2-carboxamido)propanamido)-4-phenylbutyl)boronic acid]"
3,500 to 5000,"COC[C@@H](NC(=O)c1cnccn1)C(=O)N[C@@H](CCCc1ccc(O)cc1)B(O)O [Compound 40, ((R)-4-(4-hydroxyphenyl)-1-((R)-3-methoxy-2-(pyrazine-2-carboxamido)propanamido)butyl)boronic acid]"
4,50 to 500,"COC[C@@H](NC(=O)c1cnccn1)C(=O)N[C@@H](CCOc1ccc(Cl)cc1C)B(O)O [Compound 27, ((R)-3-(4-chloro-2-methylphenoxy)-1-((R)-3-methoxy-2-(pyrazine-2-carboxamido)propanamido)propyl)boronic acid]"
5,50 to 500,"COC[C@@H](NC(=O)c1cnccn1)C(=O)N[C@@H](CC1CC1)B(O)O [Compound 18, ((R)-2-cyclopropyl-1-((R)-3-methoxy-2-(pyrazine-2-carboxamido)propanamido)ethyl)boronic acid]"
6,50 to 500,"COC[C@@H](NC(=O)c1cnccn1)C(=O)N[C@@H](CCCc1cccc(OC)c1)B(O)O [Compound 17, ((R)-1-((R)-3-methoxy-2-(pyrazine-2-carboxamido)propanamido)-4-(3-methoxyphenyl)butyl)boronic acid]"
7,500 to 5000,"O=C(N[C@H](CO)C(=O)N[C@@H](CCCc1ccc(O)cc1)B(O)O)c1cnccn1 [Compound 39, ((R)-1-((R)-3-hydroxy-2-(pyrazine-2-carboxamido)propanamido)-4-(4-hydroxyphenyl)butyl)boronic acid]"
8,50 to 500,"COC[C@@H](NC(=O)c1cnccn1)C(=O)N[C@@H](COCc1ccccc1)B(O)O [Compound 2, ((R)-2-(benzyloxy)-1-((R)-3-methoxy-2-(pyrazine-2-carboxamido)propanamido)ethyl)boronic acid]"
9,500 to 5000,"COC[C@H](C(=O)N[C@@H](CCCc1ccccc1)B(O)O)N1C(=O)CCC1=O [Compound 19, ((R)-1-((R)-2-(2,5-dioxopyrrolidin-1-yl)-3-methoxypropanamido)-4-phenylbutyl)boronic acid]"
10,50 to 500,"COC[C@@H](NC(=O)[C@H]1CCC(=O)N1)C(=O)N[C@@H](CCCc1ccccc1)B(O)O [Compound 8, ((R)-1-((R)-3-methoxy-2-((R)-5-oxopyrrolidine-2-carboxamido)propanamido)-4-phenylbutyl)boronic acid]"
11,50 to 500,"COC[C@H](C(=O)N[C@@H](CCCc1ccccc1)B(O)O)N1C(=O)c2ccccc2C1=O [Compound 16, ((R)-1-((R)-2-(1,3-dioxoisoindolin-2-yl)-3-methoxypropanamido)-4-phenylbutyl)boronic acid]"
12,50 to 500,"CO[C@@H](C)[C@@H](NC(=O)c1cnccn1)C(=O)N[C@@H](CCOc1ccccc1)B(O)O [Compound 30, ((R)-1-((2R,3S)-3-methoxy-2-(pyrazine-2-carboxamido)butanamido)-3-phenoxypropyl)boronic acid]"
13,50 to 500,"COC[C@@H](NC(=O)c1cnccn1)C(=O)N[C@@H](CC(C)C)B(O)O [Compound 38, ((R)-1-((R)-3-methoxy-2-(pyrazine-2-carboxamido)propanamido)-3-methylbutyl)boronic acid]"
14,500 to 5000,"COC[C@@H](NC(=O)c1cnccn1)C(=O)N[C@H](CCOc1ccc(Cl)cc1F)B(O)O [Compound 29, ((S)-3-(4-chloro-2-fluorophenoxy)-1-((R)-3-methoxy-2-(pyrazine-2-carboxamido)propanamido)propyl)boronic acid]"
15,50 to 500,"COC[C@@H](NC(=O)c1cnccn1)C(=O)N[C@@H](CCCc1cccc(Cl)c1)B(O)O [Compound 15, ((R)-4-(3-chlorophenyl)-1-((R)-3-methoxy-2-(pyrazine-2-carboxamido)propanamido)butyl)boronic acid]"
16,500 to 5000,"COC[C@@H](NC(=O)c1cnccn1)C(=O)N[C@@H](CCC(=O)c1ccccc1)B(O)O [Compound 53, ((R)-1-((R)-3-methoxy-2-(pyrazine-2-carboxamido)propanamido)-4-oxo-4-phenylbutyl)boronic acid]"
